Results on 6 compounds are retold here after PMC3826149, “Red Algal Bromophenols as Glucose 6-Phosphate Dehydrogenase Inhibitors” (Marine Drugs, 2013).

Experiment [1] concerns the target T1, glucose 6-phosphate dehydrogenase (G6PD) (Leuconostoc mesenteroides, UniProt P11411).
T1 construct: purchased Sigma-Aldrich (St. Louis, MO, USA)
T1 sequence (P11411 1-486): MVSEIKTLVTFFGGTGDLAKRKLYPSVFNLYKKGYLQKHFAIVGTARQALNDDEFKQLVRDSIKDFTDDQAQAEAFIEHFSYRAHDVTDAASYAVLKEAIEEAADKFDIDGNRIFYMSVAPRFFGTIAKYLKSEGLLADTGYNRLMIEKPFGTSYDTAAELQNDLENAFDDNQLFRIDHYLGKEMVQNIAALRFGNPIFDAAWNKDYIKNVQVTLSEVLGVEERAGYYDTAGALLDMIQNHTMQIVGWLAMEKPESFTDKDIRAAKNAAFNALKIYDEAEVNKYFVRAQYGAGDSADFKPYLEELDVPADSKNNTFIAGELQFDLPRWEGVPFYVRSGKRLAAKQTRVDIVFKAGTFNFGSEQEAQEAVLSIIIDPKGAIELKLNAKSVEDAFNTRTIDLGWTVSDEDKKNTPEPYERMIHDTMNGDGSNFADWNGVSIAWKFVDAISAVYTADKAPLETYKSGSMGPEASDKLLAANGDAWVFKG
Nature of the experiment: G6PD enzyme inhibition assay (colorimetric, WST-1/1-methoxy PMS). It counts as biochemical. Conditions: for IC50: Mean ± SD (n = 3), glucose 6-phosphate 3.0 mM, NADP+ 0.3 mM, read-out: IC50 on glucose 6-phosphate dehydrogenase (G6PD) reaction; for G6PD inhibition in words: qualitative statement. From the text: G6PD (EC 1.1.1.49) from Leuconostoc mesenteroides was purchased from Sigma-Aldrich (St. Louis, MO, USA). WST-1 and 1-methoxy-5-methylphenazinium methylsulfate (1-methoxy PMS) were purchased from Dojindo Laboratories (Mashiki, Kumamoto, Japan) and oxidized nicotinamide adenine dinucleotide phosphate (NADP^+) from Oriental Yeast Industries (Tokyo, Japan). Glucose 6-phosphate was purchased from Wako Pure Chemicals (Tokyo, Japan). Epigallocatechin gallate (EGCG) was purchased from Cayman Chemical Company (Ann Arbor, MI, USA). Thin layer chromatography (TLC) was carried out using a glass plate precoated with silica gel 60 F254 and RP-18 (Merck, Darmstadt, Germany), and spots were detected under UV light and visualized by spraying 50% sulfuric acid and potassium ferricyanide-ferric chloride reagents. NMR spectra were recorded in acetone-d6 on a Bruker AMX-500 (Karlsruhe, Germany) spectrometer at 500 MHz for proton and 125 MHz for carbon chemical shifts. Field desorption-MS spectra were recorded on a JEOL JMS-T100GCV spectrometer (Tokyo, Japan).
Enzyme assay was carried out by colorimetric method as described in literature with slight modification. The reaction mixture was prepared by adding 135 mM Tris-HCl buffer (pH 7.8, 675 μL), 30 mM glucose 6-phosphate (100 μL), 3 mM NADP^+ (100 μL), 20 mM MgCl2 (100 μL) and test materials in MeOH (15 μL). Reaction was initiated by adding 0.035 U/mL G6PD solution (10 μL) to the reaction mixture. Each reaction was carried out at 25 °C for 15 min and terminated by adding 1 mL of saturated aqueous NaCl solution. For determination of produced NADPH, 0.05 mM WST-1 (400 μL) and 0.025 mM 1-methoxy PMS (400 μL) were mixed to the reaction mixture (400 μL) and the absorbance was measured at 438 nm. EGCG was used as a positive control.

A further experiment deals with purified α-glucosidase. Also on record: method as in PMID 20629879. To be noted: previous study; cited from earlier work.
[2] abbreviates: read-out: Inhibition (%) of G6PD.

Structures are written as SMILES. Where only a bound is given, the exact number is not on record here.

One may read the IC50 as the concentration needed to halve the response being measured. Regarding `O=Cc1cc(Br)c(O)c(Br)c1` [Compound 1], in experiment [1], the IC50 is 76.6 ± 1.1 µM.

What is called inhibition is the percentage by which the read-out fell short of the control. On to `OCc1cc(O)c(O)c(Br)c1` [Compound 2], for which, in experiment [1], the IC50 is more than 370 µM and the “G6PD inhibition in words” value is given as “low inhibition”. In addition, in experiment [1] (setting [2]), the inhibition at 370 µM came out at 37.6%.

In the case of `COCc1cc(O)c(O)c(Br)c1` [Compound 3], in experiment [1], the IC50 was more than 340 µM and the “G6PD inhibition in words” value is listed as “low inhibition”. The inhibition at 340 µM in experiment [1] (setting [2]) stood at 35.7%.

Consider `OCc1cc(O)c(O)c(Br)c1Cc1cc(O)c(O)c(Br)c1Br` [Compound 4], for which the IC50 in experiment [1] came out at 4.01 ± 0.3 µM.

Take `Oc1cc(COCc2cc(O)c(O)c(Br)c2Br)c(Br)c(Br)c1O` [Compound 5]: the “fold lower IC50 value than epigallocatechin gallate (EGCG)” value in experiment [1] (G6PD IC50 relative to known inhibitor EGCG) is 9.1 fold. The IC50 in experiment [1] was 0.85 ± 0.1 µM; at purified α-glucosidase, 1000 to 1200 µM.

For `O=C(O[C@@H]1Cc2c(O)cc(O)cc2O[C@@H]1c1cc(O)c(O)c(O)c1)c1cc(O)c(O)c(O)c1` [Epigallocatechin gallate, reference compound], the IC50 in experiment [1] is 7.7 ± 0.14 µM.
